Assay results taken from publication PMC12621043, “Un-LOK-ing a New Approach for Conformational Selective Targeting of STK10 (LOK)” (ACS Medicinal Chemistry Letters, 2025).

Tests used:
Assay in all cases: DSF Tm panel
Assay type in all cases: binding
Conditions in all cases: 10 μM compound
CHEK2A = target: T1, CHEK2A (Homo sapiens, UniProt O96017)
T1 construct: purchased in-house DSF kinase panel (SGC-style construct names; the trailing letter is the construct ID)
Description: (§1) The synthesized urea-based derivatives were evaluated in a panel of kinases by differential scanning fluorescence (DSF) to investigate their selectivity profile. A positive ΔT m in the DSF assay indicates stabilization of the protein upon ligand binding in comparison to its apo state, with higher thermal shifts generally correlating with stronger binding. For this purpose, we used our internal kinase selectivity panel (∼90 kinases) along with staurosporine as a positive control. […] This was also reflected in the overall low selectivity score (S) throughout the series, which is determined by the ratio between the number of kinases that are stabilized above 5 °C and the total number of kinases tested (Figure ). Motivated by these findings, we further validated the entire series by orthogonal binding and activity assays to determine the in vitro and cellular potency and selectivity of the developed series in comparison to the selected reference compounds. […]
(§2) was performed as previously described.[1,2] Briefly, recombinant protein kinase domains at a concentration of 2 μM were mixed with 10 μM compound in a buffer containing 20 mM HEPES, […]
(§3) probe (1 µl per mL). Subsequently, temperature-dependent protein unfolding profiles were […]
(§4) emission filters were set to 465 nm and 590 nm, respectively. The temperature was raised with a step rate of 3 °C per minute. […]
(§5) inflection point of the transition curve. […]
(§6) previously.[3] In brief, STK10, STK3, STK4 and SLK were obtained as plasmids cloned in […]
(§7) Plasmids were transfected into
(§8) KD concentration taken from TracerDB (tracerdb.org)[4] were pipetted into white 384-well

PIM3A = target: T2, PIM3A (Homo sapiens, UniProt Q86V86)
T2 construct: purchased in-house DSF kinase panel (SGC-style construct names; the trailing letter is the construct ID)
Description: as §1, §2, §3, §4, §5, §6, §7, §8

BRD4 (BRD4A) = target: T3, BRD4 (BRD4A) (Homo sapiens, UniProt O60885)
T3 construct: purchased in-house DSF kinase panel (SGC-style construct names; the trailing letter is the construct ID)
Description: as §1, §2, §3, §4, §5, §6, §7, §8

CAMK1DA = target: T4, CAMK1DA (Homo sapiens, UniProt Q8IU85)
T4 construct: purchased in-house DSF kinase panel (SGC-style construct names; the trailing letter is the construct ID)
T4 sequence (Q8IU85 whole entry): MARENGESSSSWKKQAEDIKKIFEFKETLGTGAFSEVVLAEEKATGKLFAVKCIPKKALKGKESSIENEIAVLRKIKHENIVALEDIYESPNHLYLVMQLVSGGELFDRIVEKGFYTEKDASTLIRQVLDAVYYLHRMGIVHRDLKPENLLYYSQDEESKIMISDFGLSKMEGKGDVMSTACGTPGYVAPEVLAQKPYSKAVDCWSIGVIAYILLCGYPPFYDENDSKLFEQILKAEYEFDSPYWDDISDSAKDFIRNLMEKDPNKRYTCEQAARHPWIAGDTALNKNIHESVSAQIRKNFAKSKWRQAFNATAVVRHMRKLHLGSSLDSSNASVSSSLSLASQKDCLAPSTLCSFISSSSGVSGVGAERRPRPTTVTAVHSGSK
Description: as §1, §2, §3, §4, §5, §6, §7, §8

MAP2K1A = target: T5, MAP2K1A (Homo sapiens, UniProt Q02750)
T5 construct: purchased in-house DSF kinase panel (SGC-style construct names; the trailing letter is the construct ID)
T5 sequence (Q02750 68-361): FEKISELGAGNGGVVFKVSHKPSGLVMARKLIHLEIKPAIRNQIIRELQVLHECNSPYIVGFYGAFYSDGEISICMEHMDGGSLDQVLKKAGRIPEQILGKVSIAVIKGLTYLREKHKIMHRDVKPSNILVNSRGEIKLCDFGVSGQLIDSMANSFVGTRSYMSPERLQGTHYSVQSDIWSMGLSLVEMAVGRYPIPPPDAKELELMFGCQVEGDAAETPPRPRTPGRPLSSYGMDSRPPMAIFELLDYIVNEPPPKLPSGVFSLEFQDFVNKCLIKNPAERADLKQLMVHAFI
Description: as §1, §2, §3, §4, §5, §6, §7, §8

STK6A = target: T6, STK6A (Homo sapiens, UniProt O14965)
T6 construct: purchased in-house DSF kinase panel (SGC-style construct names; the trailing letter is the construct ID)
T6 sequence (O14965 122-403): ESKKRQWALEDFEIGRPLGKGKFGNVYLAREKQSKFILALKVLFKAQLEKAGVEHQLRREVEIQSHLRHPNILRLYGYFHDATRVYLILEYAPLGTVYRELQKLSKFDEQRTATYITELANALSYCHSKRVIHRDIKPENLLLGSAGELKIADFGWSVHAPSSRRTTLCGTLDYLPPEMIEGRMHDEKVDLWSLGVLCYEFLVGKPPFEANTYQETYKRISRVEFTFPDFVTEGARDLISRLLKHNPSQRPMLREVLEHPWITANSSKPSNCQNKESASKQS
Description: as §1, §2, §3, §4, §5, §6, §7, §8

MAP2K4A = target: T7, MAP2K4A (Homo sapiens, UniProt P45985)
T7 construct: purchased in-house DSF kinase panel (SGC-style construct names; the trailing letter is the construct ID)
T7 sequence (P45985 102-367): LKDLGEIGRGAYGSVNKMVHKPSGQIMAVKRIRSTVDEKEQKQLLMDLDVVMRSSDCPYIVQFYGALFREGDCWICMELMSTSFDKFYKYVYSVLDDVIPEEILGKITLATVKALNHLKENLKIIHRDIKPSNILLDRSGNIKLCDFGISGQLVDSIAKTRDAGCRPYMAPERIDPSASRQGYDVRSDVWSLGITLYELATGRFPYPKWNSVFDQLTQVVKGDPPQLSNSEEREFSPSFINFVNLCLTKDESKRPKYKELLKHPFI
Description: as §1, §2, §3, §4, §5, §6, §7, §8

CLK3A = target: T8, CLK3A (Homo sapiens, UniProt P49761)
T8 construct: purchased in-house DSF kinase panel (SGC-style construct names; the trailing letter is the construct ID)
T8 sequence (P49761 127-484): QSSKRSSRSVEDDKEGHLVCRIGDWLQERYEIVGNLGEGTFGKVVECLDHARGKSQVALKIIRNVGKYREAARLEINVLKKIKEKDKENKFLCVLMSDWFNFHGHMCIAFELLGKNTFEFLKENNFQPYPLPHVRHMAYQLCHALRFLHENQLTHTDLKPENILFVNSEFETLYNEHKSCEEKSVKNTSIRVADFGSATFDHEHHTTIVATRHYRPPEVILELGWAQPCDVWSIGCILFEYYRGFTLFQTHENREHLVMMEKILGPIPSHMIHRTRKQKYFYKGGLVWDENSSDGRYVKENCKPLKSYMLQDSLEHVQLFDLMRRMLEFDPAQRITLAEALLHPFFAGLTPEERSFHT
Description: as §1, §2, §3, §4, §5, §6, §7, §8

ULK1A = target: T9, ULK1A (Homo sapiens, UniProt O75385)
T9 construct: purchased in-house DSF kinase panel (SGC-style construct names; the trailing letter is the construct ID)
T9 sequence (O75385 1-283): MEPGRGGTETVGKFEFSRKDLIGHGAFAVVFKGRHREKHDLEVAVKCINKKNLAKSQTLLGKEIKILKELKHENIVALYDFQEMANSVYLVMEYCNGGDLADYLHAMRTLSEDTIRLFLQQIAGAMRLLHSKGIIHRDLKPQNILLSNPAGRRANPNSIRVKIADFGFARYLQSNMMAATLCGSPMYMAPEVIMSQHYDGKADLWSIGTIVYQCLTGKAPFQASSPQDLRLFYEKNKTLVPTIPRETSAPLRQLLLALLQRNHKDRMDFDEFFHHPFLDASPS
Description: as §1, §2, §3, §4, §5, §6, §7, §8

SRCA = target: T10, SRCA (Homo sapiens, UniProt P12931)
T10 construct: purchased in-house DSF kinase panel (SGC-style construct names; the trailing letter is the construct ID)
T10 sequence (P12931 254-536): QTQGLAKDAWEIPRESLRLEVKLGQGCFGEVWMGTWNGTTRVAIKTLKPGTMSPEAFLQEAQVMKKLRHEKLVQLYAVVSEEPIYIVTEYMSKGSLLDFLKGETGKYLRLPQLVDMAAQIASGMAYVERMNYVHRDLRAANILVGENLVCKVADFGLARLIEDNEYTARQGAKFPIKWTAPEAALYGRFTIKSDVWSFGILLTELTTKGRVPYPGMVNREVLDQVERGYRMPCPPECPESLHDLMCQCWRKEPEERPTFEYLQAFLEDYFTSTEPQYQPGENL
Description: as §1, §2, §3, §4, §5, §6, §7, §8

GSK3BB = target: T11, GSK3BB (Homo sapiens, UniProt P49841)
T11 construct: purchased in-house DSF kinase panel (SGC-style construct names; the trailing letter is the construct ID)
T11 sequence (P49841 35-386): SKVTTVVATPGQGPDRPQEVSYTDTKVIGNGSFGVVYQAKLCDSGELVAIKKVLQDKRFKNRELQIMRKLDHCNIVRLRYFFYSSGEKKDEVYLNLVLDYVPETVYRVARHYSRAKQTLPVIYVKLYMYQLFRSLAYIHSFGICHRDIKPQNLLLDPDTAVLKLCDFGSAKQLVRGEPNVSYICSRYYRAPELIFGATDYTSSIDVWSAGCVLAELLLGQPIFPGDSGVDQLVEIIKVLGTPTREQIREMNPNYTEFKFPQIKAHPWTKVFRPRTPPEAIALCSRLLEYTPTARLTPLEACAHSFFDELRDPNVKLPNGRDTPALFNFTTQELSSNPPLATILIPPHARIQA
Description: as §1, §2, §3, §4, §5, §6, §7, §8

FGFR1B = target: T12, FGFR1B (Homo sapiens, UniProt P11362)
T12 construct: purchased in-house DSF kinase panel (SGC-style construct names; the trailing letter is the construct ID)
T12 sequence (P11362 456-767): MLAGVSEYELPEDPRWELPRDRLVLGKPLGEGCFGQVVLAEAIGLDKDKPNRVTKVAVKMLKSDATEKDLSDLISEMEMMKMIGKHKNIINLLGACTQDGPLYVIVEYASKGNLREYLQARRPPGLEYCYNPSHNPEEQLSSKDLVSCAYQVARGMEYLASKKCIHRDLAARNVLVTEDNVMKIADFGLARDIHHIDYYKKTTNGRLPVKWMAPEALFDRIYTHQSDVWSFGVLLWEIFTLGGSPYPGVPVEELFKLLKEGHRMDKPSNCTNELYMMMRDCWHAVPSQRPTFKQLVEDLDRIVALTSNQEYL
Description: as §1, §2, §3, §4, §5, §6, §7, §8

PAK1A = target: T13, PAK1A (Homo sapiens, UniProt Q13153)
T13 construct: purchased in-house DSF kinase panel (SGC-style construct names; the trailing letter is the construct ID)
T13 sequence (Q13153 249-545): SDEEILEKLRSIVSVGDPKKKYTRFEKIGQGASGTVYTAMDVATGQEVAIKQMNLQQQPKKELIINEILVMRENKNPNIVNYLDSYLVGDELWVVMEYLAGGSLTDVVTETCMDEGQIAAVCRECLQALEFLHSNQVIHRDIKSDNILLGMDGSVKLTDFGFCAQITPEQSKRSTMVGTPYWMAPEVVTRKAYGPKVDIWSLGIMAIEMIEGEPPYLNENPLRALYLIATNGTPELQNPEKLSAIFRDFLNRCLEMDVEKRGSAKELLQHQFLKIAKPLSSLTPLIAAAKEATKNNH
Description: as §1, §2, §3, §4, §5, §6, §7, §8

EPHA5A = target: T14, EPHA5A (Homo sapiens, UniProt P54756)
T14 construct: purchased in-house DSF kinase panel (SGC-style construct names; the trailing letter is the construct ID)
T14 sequence (P54756 653-939): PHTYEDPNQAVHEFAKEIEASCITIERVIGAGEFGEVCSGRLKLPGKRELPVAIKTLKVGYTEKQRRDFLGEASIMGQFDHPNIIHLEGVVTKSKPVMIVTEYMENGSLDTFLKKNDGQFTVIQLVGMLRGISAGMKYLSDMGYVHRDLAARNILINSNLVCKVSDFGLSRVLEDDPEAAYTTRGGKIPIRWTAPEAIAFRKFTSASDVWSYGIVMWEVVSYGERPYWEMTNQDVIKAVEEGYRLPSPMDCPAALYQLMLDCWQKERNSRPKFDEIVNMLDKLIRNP
Description: as §1, §2, §3, §4, §5, §6, §7, §8

MAP3K5A = target: T15, MAP3K5A (Homo sapiens, UniProt Q99683)
T15 construct: purchased in-house DSF kinase panel (SGC-style construct names; the trailing letter is the construct ID)
T15 sequence (Q99683 659-951): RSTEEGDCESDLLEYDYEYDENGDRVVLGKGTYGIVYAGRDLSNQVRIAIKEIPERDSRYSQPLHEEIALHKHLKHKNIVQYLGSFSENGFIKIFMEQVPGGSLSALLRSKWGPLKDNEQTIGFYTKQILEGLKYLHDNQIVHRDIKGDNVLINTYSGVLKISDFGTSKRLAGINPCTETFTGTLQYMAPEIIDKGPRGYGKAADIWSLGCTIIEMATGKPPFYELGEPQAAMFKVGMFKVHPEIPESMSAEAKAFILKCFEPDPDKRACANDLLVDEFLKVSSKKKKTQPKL

MELKA = target: T16, MELKA (Homo sapiens, UniProt Q14680)
T16 construct: purchased in-house DSF kinase panel (SGC-style construct names; the trailing letter is the construct ID)
T16 sequence (Q14680 1-340): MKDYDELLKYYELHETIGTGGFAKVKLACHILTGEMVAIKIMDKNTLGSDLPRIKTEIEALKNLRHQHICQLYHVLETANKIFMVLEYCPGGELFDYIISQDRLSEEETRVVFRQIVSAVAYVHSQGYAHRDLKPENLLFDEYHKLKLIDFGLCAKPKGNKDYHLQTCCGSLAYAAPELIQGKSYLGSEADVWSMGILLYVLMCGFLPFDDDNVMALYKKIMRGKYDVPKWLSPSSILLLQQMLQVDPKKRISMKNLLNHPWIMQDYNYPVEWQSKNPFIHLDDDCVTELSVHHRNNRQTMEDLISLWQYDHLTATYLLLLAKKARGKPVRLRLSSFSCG

CSNK1DA = target: T17, CSNK1DA (Homo sapiens, UniProt P48730)
T17 construct: purchased in-house DSF kinase panel (SGC-style construct names; the trailing letter is the construct ID)
T17 sequence (P48730 1-294): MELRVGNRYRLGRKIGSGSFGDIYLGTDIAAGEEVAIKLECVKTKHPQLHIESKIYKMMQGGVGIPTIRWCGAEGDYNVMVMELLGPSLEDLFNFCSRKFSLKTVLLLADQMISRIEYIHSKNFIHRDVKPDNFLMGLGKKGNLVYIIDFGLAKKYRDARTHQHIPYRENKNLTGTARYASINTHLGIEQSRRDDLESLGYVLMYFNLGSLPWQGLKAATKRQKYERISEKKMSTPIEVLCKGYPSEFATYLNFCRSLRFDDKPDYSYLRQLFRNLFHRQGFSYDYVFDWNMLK

T1 sequence (O96017 210-531): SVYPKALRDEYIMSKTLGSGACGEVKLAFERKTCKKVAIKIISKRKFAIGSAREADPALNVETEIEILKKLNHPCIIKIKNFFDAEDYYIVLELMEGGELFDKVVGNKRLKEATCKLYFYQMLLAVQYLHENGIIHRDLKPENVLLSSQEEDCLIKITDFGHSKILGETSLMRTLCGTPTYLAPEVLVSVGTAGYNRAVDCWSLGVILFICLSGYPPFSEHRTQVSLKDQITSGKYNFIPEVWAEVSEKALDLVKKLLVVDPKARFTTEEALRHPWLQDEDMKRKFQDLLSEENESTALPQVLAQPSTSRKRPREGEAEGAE

SMILES	ΔTm at 10 µM (CHEK2A) [°C]	ΔTm at 10 µM (PIM3A) [°C]	ΔTm at 10 µM (BRD4 (BRD4A)) [°C]	ΔTm at 10 µM (CAMK1DA) [°C]	ΔTm at 10 µM (MAP2K1A) [°C]	ΔTm at 10 µM (STK6A) [°C]	ΔTm at 10 µM (MAP2K4A) [°C]	ΔTm at 10 µM (CLK3A) [°C]	ΔTm at 10 µM (ULK1A) [°C]	ΔTm at 10 µM (SRCA) [°C]	ΔTm at 10 µM (GSK3BB) [°C]	ΔTm at 10 µM (FGFR1B) [°C]	ΔTm at 10 µM (PAK1A) [°C]	ΔTm at 10 µM (EPHA5A) [°C]	ΔTm at 10 µM (MAP3K5A) [°C]	ΔTm at 10 µM (MELKA) [°C]	ΔTm at 10 µM (CSNK1DA) [°C]
O=C(NCc1ccc(C(F)(F)F)cc1)Nc1ccc2cc1OCCOCCNc1ccn3ncc-2c3n1 [compound 28]	7.7	4.3	2.1	2.1	1	7.6	5	0.4	0.6	2.3	0.2	1.5	1.8	1.9	2.1	0.9	-0.5
COc1ccccc1CNC(=O)Nc1ccc2cc1OCCOCCNc1ccn3ncc-2c3n1 [compound 29]	5.8	3.9	0.3	0.4	0.6	5.6	2.8	0.2	0.4	2	1.2	1.4	0.1	0.6	1	1	0.2
COc1cccc(CNC(=O)Nc2ccc3cc2OCCOCCNc2ccn4ncc-3c4n2)c1 [compound 30]	5.1	4.1	0.1	0.4	0.6	7.4	3.2	0.2	0.5	2.7	1.3	1.4	0.2	0.7	1.5	1.3	0.2
COc1ccc(CNC(=O)Nc2ccc3cc2OCCOCCNc2ccn4ncc-3c4n2)cc1 [compound 31]	7	4.9	0.6	1.2	0.6	8	4.3	0	0.6	3.2	1	1.5	0.5	1.2	1.6	1.7	0.1
COc1ccc(CNC(=O)Nc2ccc3cc2OCCOCCNc2ccn4ncc-3c4n2)cc1F [compound 32]	6.8	-4.8	1.2	1.4	0.7	7.6	4	0.2	0.5	2.6	0.6	1.2	1	1.2	2	1.4	-0.2
COc1cc(CNC(=O)Nc2ccc3cc2OCCOCCNc2ccn4ncc-3c4n2)ccc1F [compound 33]	6.5	5.1	0.7	1.1	0.7	9.9	3.6	0.5	0.2	2.6	1.6	1.9	0.5	1.4	2.8	2.1	0.1
C[C@H](NC(=O)Nc1ccc2cc1OCCOCCNc1ccn3ncc-2c3n1)c1ccccc1 [compound 34]	6.3	4.4	-0.1	0.8	0.7	7.7	3.3	0	-0.1	1.4	1.1	1.2	0.3	1	0.8	1.3	-0.1
CN1CCN(C(=O)Nc2ccc3cc2OCCOCCNc2ccn4ncc-3c4n2)CC1 [compound 35]	0.8	1.6	-0.4	-1.2	-0.2	2.4	1.8	0.7	0.2	0.7	1.7	0.7	-0.1	-0.5	1.7	2.2	0.5
